Measurements as given in paper PMC7362391, “USP30 sets a trigger threshold for PINK1–PARKIN amplification of mitochondrial ubiquitylation” (Life Science Alliance, 2020).

Legend:
USP30 = target: T1, USP30 (Homo sapiens, UniProt Q70CQ3); assay: bio-layer interferometry (no significant off-rate); IC50 and kinact/KI with purified USP30 and ubiquitin-rhodamine; Ub-PA competition in lysate and cells; assay type: biochemical
T1 construct: BLI: residues 64-502Δ179-216 & 288-305 (biotinylated); activity assay: residues 57-517
T1 sequence (Q70CQ3 57-517): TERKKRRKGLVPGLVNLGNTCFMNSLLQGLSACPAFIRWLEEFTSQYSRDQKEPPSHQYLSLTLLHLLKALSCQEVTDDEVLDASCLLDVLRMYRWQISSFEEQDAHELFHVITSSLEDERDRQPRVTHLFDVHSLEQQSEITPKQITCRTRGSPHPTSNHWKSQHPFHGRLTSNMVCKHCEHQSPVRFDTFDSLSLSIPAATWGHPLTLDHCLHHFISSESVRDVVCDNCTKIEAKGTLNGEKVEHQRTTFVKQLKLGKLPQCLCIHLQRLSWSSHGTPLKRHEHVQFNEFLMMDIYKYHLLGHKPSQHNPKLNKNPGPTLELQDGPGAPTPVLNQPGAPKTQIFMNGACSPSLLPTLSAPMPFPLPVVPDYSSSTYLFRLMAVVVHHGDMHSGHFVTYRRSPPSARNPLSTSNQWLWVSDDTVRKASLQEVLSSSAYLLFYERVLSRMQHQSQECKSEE
From the text: bio-layer interferometry (no significant off-rate); IC50 and kinact/KI with purified USP30 and ubiquitin-rhodamine; Ub-PA competition in lysate and cells on USP30 | Bio-layer interferometry experiments show binding behaviour that is consistent with covalent modification of USP30

USP6 = USP6 (Homo sapiens, UniProt P35125); assay: DUB profiler selectivity panel (Ubiquigent) at […]; assay type: biochemical
USP6, sequence (P35125 whole entry): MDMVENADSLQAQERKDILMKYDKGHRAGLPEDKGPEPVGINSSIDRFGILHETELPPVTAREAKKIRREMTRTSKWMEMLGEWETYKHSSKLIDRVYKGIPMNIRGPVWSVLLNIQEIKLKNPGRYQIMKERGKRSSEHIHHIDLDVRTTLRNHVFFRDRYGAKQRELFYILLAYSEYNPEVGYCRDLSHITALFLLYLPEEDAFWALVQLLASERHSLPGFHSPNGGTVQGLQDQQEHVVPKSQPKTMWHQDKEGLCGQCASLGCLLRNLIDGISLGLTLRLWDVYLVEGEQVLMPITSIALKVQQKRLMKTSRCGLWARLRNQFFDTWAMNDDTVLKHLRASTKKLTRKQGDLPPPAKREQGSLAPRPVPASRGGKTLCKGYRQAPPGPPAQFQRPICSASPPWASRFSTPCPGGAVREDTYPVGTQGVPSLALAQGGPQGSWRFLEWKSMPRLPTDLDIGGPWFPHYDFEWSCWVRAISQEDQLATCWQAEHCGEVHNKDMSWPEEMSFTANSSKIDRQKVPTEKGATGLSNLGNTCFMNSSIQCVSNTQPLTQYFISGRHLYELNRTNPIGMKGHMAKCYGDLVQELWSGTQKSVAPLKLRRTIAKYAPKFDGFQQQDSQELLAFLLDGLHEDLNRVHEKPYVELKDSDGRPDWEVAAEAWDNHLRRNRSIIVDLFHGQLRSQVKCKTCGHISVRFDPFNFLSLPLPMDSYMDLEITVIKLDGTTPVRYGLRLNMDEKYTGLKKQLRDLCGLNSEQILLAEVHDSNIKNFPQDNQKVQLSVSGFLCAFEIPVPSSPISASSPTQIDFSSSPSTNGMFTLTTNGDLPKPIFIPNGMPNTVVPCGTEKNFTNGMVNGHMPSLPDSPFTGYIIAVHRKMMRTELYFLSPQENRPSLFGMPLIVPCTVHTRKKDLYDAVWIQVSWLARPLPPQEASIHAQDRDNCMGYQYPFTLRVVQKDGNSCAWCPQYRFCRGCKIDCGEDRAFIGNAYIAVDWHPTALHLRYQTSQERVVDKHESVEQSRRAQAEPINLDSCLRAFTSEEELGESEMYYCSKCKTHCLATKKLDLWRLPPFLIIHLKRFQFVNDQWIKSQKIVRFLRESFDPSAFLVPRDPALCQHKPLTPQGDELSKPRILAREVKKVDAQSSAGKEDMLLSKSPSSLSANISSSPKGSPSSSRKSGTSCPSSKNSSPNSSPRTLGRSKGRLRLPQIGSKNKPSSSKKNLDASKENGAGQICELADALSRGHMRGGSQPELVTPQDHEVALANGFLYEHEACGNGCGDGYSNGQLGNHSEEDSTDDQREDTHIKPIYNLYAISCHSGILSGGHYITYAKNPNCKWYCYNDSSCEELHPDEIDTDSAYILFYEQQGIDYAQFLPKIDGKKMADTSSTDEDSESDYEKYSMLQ

**Q.** What does the source list for `N#CN1CCC(NC(=O)c2cc(-c3ccccc3Oc3ccccc3)n[nH]2)C1` (centres unmarked) [FT385, FT3967385]?
**A.** IC50 (USP30): ~1 nM; DUB profiler selectivity panel (Ubiquigent) at 2, 20 and 200 nM (USP6): Only one other family member, the plasma membrane–associated USP6, showed a significant degree of inhibition
